The values below are quoted from earlier work in patent publication US10194693B2, “Aerosol generating device” (FONTEM HOLDINGS 1 B.V., priority 2013, dated 2019).

Where only a bound is given, the exact number is not on record here.

Regarding `CN1CCCC1c1cccnc1` (centres unmarked) [nicotine], under “smoking a cigarette”, the “time to peak increments of plasma nicotine concentration” value is not above 10 min. Further, the “peak increments of plasma nicotine concentration” value (smoking a single cigarette) is 5 to 30 ng/mL.
